ChEMBL document CHEMBL5335831, “Total Synthesis of a TNBC-Selective Cytotoxic Bromo Nor-eremophilane, PC-A, and Its Preliminary Structure-Activity Relationships” (J Nat Prod, 2024)
Calls of active or inactive are those of the source. The rule behind the calls is not given here.

Key:
A549 = experiment: Antiproliferative activity against human A549 cells assessed as cell growth inhibition incubated for 72 hrs by sulforhodamine B assay; format: functional, cell-based; conditions: A549, 72 h
KB = experiment: Antiproliferative activity against human KB cells assessed as cell growth inhibition incubated for 72 hrs by sulforhodamine B assay; format: functional, cell-based
[1] = Antiproliferative activity against human KB-VIN cells assessed as cell growth inhibition incubated for 72 hrs by sulforhodamine B assay; format: functional, cell-based; conditions: KBVIN
MCF7 = experiment: Antiproliferative activity against human MCF7 cells assessed as cell growth inhibition incubated for 72 hrs by sulforhodamine B assay; format: functional, cell-based; conditions: MCF7, 72 h
MDA-MB-231 [2] = experiment: Antiproliferative activity against human MDA-MB-231 cells assessed as cell growth inhibition incubated for 72 hrs by sulforhodamine B assay; format: functional, cell-based; conditions: MDA-MB-231, 72 h
MDA-MB-231 [3] = experiment: Induction of cell cycle arrest in human MDA-MB-231 cells assessed as accumulation of cells at sub-G1 phase at 8 x IC50 incubated for 24 hrs by propidium iodide staining based flow cytometry; format: functional
MDA-MB-231 [4] = experiment: Induction of cell cycle arrest in human MDA-MB-231 cells assessed as accumulation of cells at G2/M phase at IC50 incubated for 24 hrs by propidium iodide staining based flow cytometry; format: functional
MDA-MB-231 [5] = experiment: Induction of nuclear fragmentation in human MDA-MB-231 cells at 8 x IC50 incubated for 24 hrs by propidium iodide staining based flow cytometry; format: functional, cell-based
MDA-MB-231 [6] = experiment: Induction of cell cycle arrest in human MDA-MB-231 cells assessed as accumulation of cells at G2/M phase at IC50 x 8 incubated for 24 hrs by propidium iodide staining based flow cytometry; format: functional

Compound | IC50 (A549) [µM] | IC50 (KB) [µM] | IC50 (MCF7) [µM] | IC50 (MDA-MB-231 [2]) [µM] | IC50 [1] [µM] | Activity (MDA-MB-231 [3]) | Activity (MDA-MB-231 [4]) | Activity (MDA-MB-231 [5]) | Activity (MDA-MB-231 [6])
C[C@H]1[C@H](O)C=CC2=CC(=O)CC[C@@]21C | > 40 | 32 | > 40 | > 40 | > 40 |  |  |  | 
C[C@H]1[C@H](O)C=C(Br)C2=CC(=O)CC[C@@]21C | 35 | 29 | 36 | 32 | 37 |  |  |  | 
C[C@H]1C(=O)C=C(Br)C2=CC(=O)CC[C@@]21C | 25 | 18 | 17 | 6.4 | 19 | Active | Active | Active | 
CC(=O)O[C@H]1C(=O)[C@@]2(C)[C@H]([C@H](OC(=O)c3ccccc3)[C@]3(O)C[C@H](OC(=O)[C@H](O)[C@@H](NC(=O)c4ccccc4)c4ccccc4)C(C)=C1C3(C)C)[C@]1(OC(C)=O)CO[C@@H]1C[C@@H]2O [PACLITAXEL] | 0.0054 |  | 0.011 |  | 2.4 |  |  |  | 
CC(=O)C1=C(O)C=C2C(Br)=CC(=O)[C@H](C)[C@@]2(C)C1 | 7.9 | 5 | 6.9 | 5.3 | 8 |  | Active |  | 
C[C@H]1C(=O)C=CC2=CC(=O)CC[C@@]21C | > 40 | > 40 | > 40 | > 40 | > 40 |  |  |  | 

Continued, in another order:

IC50 (A549) [µM] | IC50 (KB) [µM] | IC50 (MCF7) [µM] | IC50 (MDA-MB-231 [2]) [µM] | Compound | IC50 [1] [µM] | Activity (MDA-MB-231 [3]) | Activity (MDA-MB-231 [4]) | Activity (MDA-MB-231 [5]) | Activity (MDA-MB-231 [6])
> 40 | > 40 | > 40 | > 40 | CC(=O)C1=C(O)C=C2C=C[C@H](O)[C@H](C)[C@@]2(C)C1 | > 40 |  |  |  | 
19 | 15 | 13 | 5.2 | CC(=O)C1=C(O)C=C2C(Br)=C[C@H](O)[C@H](C)[C@@]2(C)C1 | 18 |  | Active |  | Active
29 | 9.5 | 16 | 31 | CC(=O)C1=C(O)C=C2C=CC(=O)[C@H](C)[C@@]2(C)C1 | 26 |  |  |  | 
